For series [1], the system named is MCF-7 breast cancer (+ve ER) cells. Kind of series: MTT cytotoxicity assay, MCF-7. The conditions noted are these: mean ± SD of three experiments, NA = no or negligible activity in initial crystal violet screening. In kind it is cell-based. Here is the method: (§1) The cytotoxic activity of the new synthesized compounds was tested in different mammalian cancer cells, breast cancer (+ve ER) (MCF-7), breast cancer (−ve ER) (MDA-MB-231), tongue (oral cancer) (SAS), prostate cancer (PC-3), colorectal cancer (HCT-116) and hepatocellular carcinoma (HuH-7 and HepG-2). The cell lines were obtained from the American Type Culture Collection (ATCC). The cells were cultivated at 37 °C and 5% CO2 in DMEM (Lonza) medium supplemented with 10% fetal bovine serum (Lonza), 100 IU/mLpenicillin and 100 µg/mL streptomycin (Lonza). Cisplatin was used as a positive control and was obtained from Sigma-Aldrich. The synthesized compounds were solubilized in DMSO and stored at −20 °C. For the initial screening, 0.5% crystal violet was used. The viability of the cells were determined by using the MTT reagent.
(§2) “The cells were seeded in a 96-well plate and serial dilutions of the tested compounds or cisplatin was added after overnight incubation of the cells at 37 °C and 5% CO2. DMSO was used as a negative control (0.1%). After that, MTT (5 mg/mL PBS) was added after 48 hours of incubation. The formazan crystals were solubilized by the acidified SDS solution. The absorbance was recorded at 570 nm by Biotech ELx-800™ plate reader (Winooski, VT, USA). The viability assay was performed 3 times and the standard deviation was determined (±). IC50 was calculated as the concentration that causes 50% inhibition of cell growth. The selectivity index was calculated as previously reported” [26, 27].

The subject of series [2] is MDA-MB-231 breast cancer (−ve ER) cells. Kind of series: MTT cytotoxicity assay, MDA-MB-231. The conditions noted are these: mean ± SD of three experiments, NA = no or negligible activity in initial crystal violet screening. In kind it is cell-based. As for the experimental part:
as §1, §2

Series [3] deals with SAS tongue carcinoma (oral cancer) cells. Kind of series: MTT cytotoxicity assay, SAS. In kind it is cell-based. The conditions noted are these: 48 h, mean ± SD of three experiments, NA = no or negligible activity in initial crystal violet screening. As for the experimental part:
as §1, §2
For orientation: Tetrazolium dyes change colour on reduction, which living cells bring about.

Series [4] deals with PC-3 prostate cancer cells. Put plainly: MTT cytotoxicity assay, PC-3. In kind it is cell-based. The conditions noted are these: 48 h, mean ± SD of three experiments, NA = no or negligible activity in initial crystal violet screening. Here is the method: as §1, §2
In series [5] the test system is HCT-116 colorectal cancer cells. Kind of series: MTT cytotoxicity assay, HCT-116. It is filed as cell-based. To be noted: mean ± SD of three experiments, NA = no or negligible activity in initial crystal violet screening, read-out: IC50 Colon HCT-116. Here is the method:
as §1
(§3) “The cells were seeded in a 96-well plate and serial dilutions of the tested compounds or cisplatin was added after overnight incubation of the cells at 37 °C and 5% CO2. DMSO was used as a negative control (0.1%). After that, MTT (5 mg/mL PBS) was added after 48 hours of incubation. […] The absorbance was recorded at 570 nm by Biotech ELx-800™ plate reader (Winooski, VT, USA). The viability assay was performed 3 times and the standard deviation was determined (±). […] The selectivity index was calculated as previously reported” [26, 27].

Series [6] relates to HuH-7 liver cancer cells. Kind of series: MTT cytotoxicity assay, HuH-7. It is filed as cell-based. The conditions noted are these: mean ± SD of three experiments, NA = no or negligible activity in initial crystal violet screening. As for the experimental part: as §1, §3
The test system of series [7] is HepG2 liver cancer cells. Kind of series: MTT cytotoxicity assay, HepG2. In kind it is cell-based. The conditions noted are these: mean ± SD of three experiments, NA = no or negligible activity in initial crystal violet screening. Here is the method: as §1, §2
Series [8] deals with seven cancer cell lines (MCF-7, MDA-MB-231, SAS, PC-3, HCT-116, HuH-7, HepG2). Kind of series: Anticancer screening against the panel of seven cancer cell lines (crystal violet initial screening). The conditions noted are these: concentration of 50 μM. In kind it is cell-based. Here is the method: To evaluate the anticancer activity of the 13 newly synthesized compounds, we screened their activities at a concentration of 50 μM against seven cancer cell lines, including breast cancer (positive [MCF-7] and negative [MDA-MB-231] for estrogen receptor expression), tongue carcinoma (SAS), prostate cancer (PC-3), colorectal cancer (HCT-116) and liver cancer (HuH-7 and HepG2) cell lines. […] The 3-(4,5-dimethylthiazol-2-yl)-2,5-diphenyltetrazolium bromide (MTT) assay was performed to determine the concentration of the active compounds needed to kill 50% of cells.
as §1

Like-named read-outs stand apart in the source and are kept apart here.

Regarding `N.N.[Cl][Pt][Cl]` [Cisplatin, reference compound], the IC50 in series [1] (48 h) was 9 ± 2.43 µM; in series [2] (48 h), 15 ± 0.71 µM; in series [3], 4.5 ± 0.34 µM; in [4], 12 ± 1.25 µM; in series [5] (48 h) it was 8 ± 0.76 µM; in series [6] (48 h) it was 14.7 ± 0.5 µM. This compound gave an IC50 in series [7] (48 h) of 10 ± 0.65 µM.

`O=C1CC(c2ccccc2)C(C(=O)Nc2ccccn2)(C(=O)Nc2ccccn2)C(c2ccccc2)C1` (stereo not drawn) [Compound 3a, 4-Oxo-2,6-diphenyl-N,N′-di(pyridin-2-yl)cyclohexane-1,1-dicarboxamide]: the melting point fell in the range of 248 to 249 °C.

`Cc1ccc(C2CC(=O)CC(c3ccc(C)cc3)C2(C(=O)Nc2ccc(Cl)cn2)C(=O)Nc2ccc(Cl)cn2)cc1` (stereo not drawn) [Compound 3b, N,N′-bis(5-Chloropyridin-2-yl)-4-oxo-2,6-di-p-tolylcyclohexane-1,1-dicarboxamide] yielded a melting point of 145 to 146 °C.

The compound `O=C1CC(c2ccc(Cl)cc2)C(C(=O)Nc2ccccn2)(C(=O)Nc2ccccn2)C(c2ccc(Cl)cc2)C1` (stereo not drawn) [Compound 3c, 2,6-bis(4-Chlorophenyl)-4-oxo-N,N′-di(pyridin-2-yl)cyclohexane-1,1-dicarboxamide] gave a melting point of 231 to 232 °C. Besides, half-maximal inhibition in series [1] (Homo sapiens, MCF7, 48 h) (IC50) was put at 10 ± 0.62 µM. Moreover, in series [2] (Homo sapiens, MDA-MB-231, 48 h), the IC50 turned out to be 7 ± 1.12 µM. The compound also registered a half-inhibitory concentration (IC50) in [3] of 15 ± 1.3 µM. In series [4], this compound registered an IC50 of 25 ± 1.42 µM. The compound further gave an IC50 in series [7] (Homo sapiens, HepG2, 48 h) of 8 ± 0.89 µM. Further, in series [8], the “anticancer activity in initial screening” value is given as “showed different levels of anticancer activities”.

Regarding `O=C1CC(c2ccc(Cl)cc2Cl)C(C(=O)Nc2ccccn2)(C(=O)Nc2ccccn2)C(c2ccc(Cl)cc2Cl)C1` (stereo not drawn) [Compound 3d, 2,6-bis(2,4-Dichlorophenyl)-4-oxo-N,N′-di(pyridin-2-yl)cyclohexane-1,1-dicarboxamide], the melting point was 210 to 211 °C. The half-inhibitory concentration (IC50) in series [1] (Homo sapiens, MCF7, 48 h) was > 50 µM. Also, half-maximal inhibition in series [2] (Homo sapiens, MDA-MB-231, 48 h) (IC50) was put at 18 ± 0.87 µM. Further, the IC50 in series [7] (Homo sapiens, HepG2, 48 h) was > 50 µM. The “anticancer activity in initial screening” value in series [8] is recorded as “showed different levels of anticancer activities”.

With `O=C1CC(c2ccc(Br)cc2)C(C(=O)Nc2ccccn2)(C(=O)Nc2ccccn2)C(c2ccc(Br)cc2)C1` (stereo not drawn) [Compound 3e, 2,6-bis(4-Bromorophenyl)-4-oxo-N,N′-di(pyridin-2-yl)cyclohexane-1,1-dicarboxamide], the figures for the IC50 in series [1] (48 h), in series [2] (48 h) and in series [7] (48 h) were 12 ± 0.54 µM, 5 ± 0.5 µM and 8 ± 0.96 µM, respectively. The “anticancer activity in initial screening” value in series [8] is listed as “showed different levels of anticancer activities”.

In turn, `O=C1CC(c2cccc([N+](=O)[O-])c2)C(C(=O)Nc2ccc(Cl)cn2)(C(=O)Nc2ccc(Cl)cn2)C(c2cccc([N+](=O)[O-])c2)C1` (stereo not drawn) [Compound 3f, N,N′-bis(5-Chloropyridin-2-yl)-2,6-bis(3-nitrophenyl)-4-oxocyclohexane-1,1-dicarboxamide] registered a melting point of 174 to 175 °C.

As for `COc1ccc(C2CC(=O)CC(c3ccc(OC)cc3)C2(C(=O)Nc2ccc(Cl)cn2)C(=O)Nc2ccc(Cl)cn2)cc1` (stereo not drawn) [Compound 3g, N,N′-bis(5-Chloropyridin-2-yl)-2,6-bis(4-methoxyphenyl)-4-oxocyclohexane-1,1-dicarboxamide], the melting point fell in the range of 203 to 204 °C.

Compound `O=C1CC(c2ccc3ccccc3c2)C(C(=O)Nc2ccc(Cl)cn2)(C(=O)Nc2ccc(Cl)cn2)C(c2ccc3ccccc3c2)C1` (stereo not drawn) [Compound 3h, N,N′-bis(5-Chloropyridin-2-yl)-2,6-di(naphthalen-2-yl)-4-oxocyclohexane-1,1-dicarboxamide] yielded a melting point of 114 to 115 °C.

In turn, `O=C1CC(c2cccs2)C(C(=O)Nc2ccc(Cl)cn2)(C(=O)Nc2ccc(Cl)cn2)C(c2cccs2)C1` (stereo not drawn) [Compound 3i, N,N′-bis(5-Chloropyridin-2-yl)-4-oxo-2,6-di(thiophen-2-yl)cyclohexane-1,1-dicarboxamide] had a melting point of 165 to 166 °C.

As to `O=C1CC(c2ccco2)C(C(=O)Nc2ccc(Cl)cn2)(C(=O)Nc2ccc(Cl)cn2)C(c2ccco2)C1` (stereo not drawn) [Compound 3j, N,N′-bis(5-Chloropyridin-2-yl)-2,6-di(furan-2-yl)-4-oxocyclohexane-1,1-dicarboxamide], the melting point fell in the range of 160 to 161 °C. In addition, in series [1] (Homo sapiens, MCF7, 48 h), it took 50 ± 0.78 µM to reach half-maximal inhibition (IC50). This compound also gave a half-maximal inhibitory concentration (IC50) in series [2] (Homo sapiens, MDA-MB-231, 48 h) of 45 ± 3 µM. Moreover, in [7] (Homo sapiens, HepG2, 48 h), the IC50 was > 50 µM.

`O=C1CC(c2cccc(Br)c2)C(C(=O)Nc2ccc(Cl)cn2)(C(=O)Nc2ccc(Cl)cn2)C(c2cccc(Br)c2)C1` (stereo not drawn) [Compound 3k, 2,6-bis(3-Bromophenyl)-N,N′-bis(5-chloropyridin-2-yl)-4-oxocyclohexane-1,1-dicarboxamide] yielded a melting point of 213 to 214 °C. The “anticancer activity in initial screening” value in series [8] was “showed different levels of anticancer activities”.

Compound `O=C1CC(c2ccc(C(F)(F)F)cc2)C(C(=O)Nc2ccc(Cl)cn2)(C(=O)Nc2ccc(Cl)cn2)C(c2ccc(C(F)(F)F)cc2)C1` (stereo not drawn) [Compound 3l, N,N′-bis(5-Chloropyridin-2-yl)-4-oxo-2,6-bis(4-(trifluoromethyl)phenyl)cyclohex-ane-1,1-dicarboxamide] displayed a melting point of 138 to 139 °C. Further, inhibition in series [1] (Homo sapiens, MCF7, 48 h) was half-maximal at 18 ± 1.71 µM (IC50). This compound also registered an IC50 in series [2] (Homo sapiens, MDA-MB-231, 48 h) of 5 ± 0.25 µM. This compound yielded an IC50 in series [3] of 9 ± 0.38 µM. For the same compound, in [4], the half-maximal inhibitory concentration (IC50) is > 50 µM. For the same compound, the IC50 in series [5] (Homo sapiens, HCT-116, 48 h) turned out to be 6 ± 0.78 µM. Also, in series [6] (Homo sapiens, Huh-7, 48 h), the IC50 came to 4.5 ± 0.3 µM. This compound also had an IC50 in series [7] (Homo sapiens, HepG2, 48 h) of 25 ± 0.38 µM. Moreover, the “anticancer activity in initial screening” value in [8] was “showed different levels of anticancer activities”.

For the compound `O=C1CC(c2ccc(F)cc2)C(C(=O)Nc2ccccn2)(C(=O)Nc2ccccn2)C(c2ccc(F)cc2)C1` (stereo not drawn) [Compound 3m, 2,6-bis(4-Fluorophenyl)-4-oxo-N,N′-di(pyridin-2-yl)cyclohexane-1,1-dicarboxamide], the melting point lay within 245 to 246 °C.

The IC50 is the concentration that gives 50% inhibition. Usually melting point stands for the temperature of the solid-liquid transition.

For the origin of these results see paper PMC6480224, “Synthesis of Pyridine-Dicarboxamide-Cyclohexanone Derivatives: Anticancer and α-Glucosidase Inhibitory Activities and In Silico Study” (Molecules, 2019).
